{
  "source": "patent US8435548B2",
  "about": "“Peptide derivatives and cosmetic composition comprising the same” (Bio-FD&C Co., Ltd, priority 2009, dated 2013)",
  "key": {"[1]": {"experiment": "Free radical scavenging activity test (DPPH method, anti-oxidative activity)", "assay_type": "physicochemical", "settings": "30 min, absorbance 517 nm", "protocol": "A representative antioxidant, vitamin C (Sigma) was used as a positive control, and the galloyl-tetrapeptide and digalloyl-tetrapeptide according to the present invention were mixed with 1,1-diphenyl-2-picrylhydrazyl (DPPH, Sigma) producing free radicals in ethanol to determine the reduced amounts of the produced free radicals. […] The resulting solution was vigorously vortexed for 10 sec, kept at a dark cold place for 30 min, and then its absorbance was measured at 517 nm by ELISA method. The anti-oxidative activity (free radical scavenging activity) was calculated according to the following formula 2 by using the absorbance of pure water as a control, and expressed as a percentage. [formula]"}, "mushroom tyrosinase": {"system": "mushroom tyrosinase", "experiment": "Inhibition effect on tyrosinase activity", "assay_type": "biochemical", "settings": "test compound 100 μM; L-tyrosine substrate; pH 6.8; 37° C., 20 min; absorbance 490 nm", "protocol": "Inhibition effects of the prepared compounds were measured by the known method (see: Pomerantz S. H., J. Biochem., 24:161-168, 1966).\nThe test compounds were prepared to a final concentration of 100 μM and put into a 96-well plate, and 220 μl of 100 mM sodium phosphate buffer (pH 6.8) and 40 μl of 1.5 mM L-tyrosine solution were added thereto. The resulting mixture was reacted with the addition of 20 μl of mushroom tyrosinase (1,500 units/ml, Sigma) at 37° C. for 20 min. 0.2 ml of the reacted solution was transferred to a 96-well plate, and its absorbance was measured at 490 nm with a microplate reader to obtain the inhibition effect on tyrosinase.\nThe tyrosinase inhibition effect was calculated according to the following formula 1 by using the absorbance of pure water as a control, and expressed as a percentage."}},
  "note": "Primed or numbered codes have the meaning given here. Where no end group is shown, it is not given here. Galloyl′ = not defined here",
  "data": [
    {"compound": "O=C(O)c1cc(O)c(O)c(O)c1", "note": "[Gallic acid]", "values": [
      {"measurement": "Free radical scavenging activity (%)", "setting": "[1]; 10 uM", "result": 63.1, "unit": "%"},
      {"measurement": "Free radical scavenging activity (%)", "setting": "[1]; 50 uM", "result": 70.4, "unit": "%"},
      {"measurement": "Free radical scavenging activity (%)", "setting": "[1]; 100 uM", "result": 75.1, "unit": "%"},
      {"measurement": "Inhibition (%)", "setting": "mushroom tyrosinase", "result": 10, "unit": "%"}
    ]},
    {"compound": "O=C1O[C@H]([C@@H](O)CO)C(O)=C1O", "note": "[Vitamin C]", "values": [
      {"measurement": "Free radical scavenging activity (%)", "setting": "[1]; 10 uM", "result": 55.2, "unit": "%"},
      {"measurement": "Free radical scavenging activity (%)", "setting": "[1]; 50 uM", "result": 68.3, "unit": "%"},
      {"measurement": "Free radical scavenging activity (%)", "setting": "[1]; 100 uM", "result": 72.5, "unit": "%"}
    ]},
    {"compound": "Digalloyl-Tetrapeptide(Lysyl-Glutamyl-Cysteinyl-Glycine) [Example 2]", "values": [
      {"measurement": "Free radical scavenging activity (%)", "setting": "[1]; 10 uM", "result": 82.1, "unit": "%"},
      {"measurement": "Free radical scavenging activity (%)", "setting": "[1]; 50 uM", "result": 82.0, "unit": "%"},
      {"measurement": "Free radical scavenging activity (%)", "setting": "[1]; 100 uM", "result": 83.5, "unit": "%"},
      {"measurement": "Inhibition (%)", "setting": "mushroom tyrosinase", "result": 52, "unit": "%"}
    ]},
    {"compound": "Digalloyl-Tetrapeptide(Lysyl-Tyrosyl-Histidyl-Tyrosine) (KYHY; also: digalloyl: two galloyl groups, sites not given here) [Comparative Example 2, soy bean-derived peptide connected to gallic acid]", "values": [
      {"measurement": "Inhibition (%)", "setting": "mushroom tyrosinase", "result": 21, "unit": "%"}
    ]},
    {"compound": "Galloyl-Tetrapeptide(Lysyl-Glutamyl-Cysteinyl-Glycine) [Example 1]", "values": [
      {"measurement": "Free radical scavenging activity (%)", "setting": "[1]; 10 uM", "result": 65.8, "unit": "%"},
      {"measurement": "Free radical scavenging activity (%)", "setting": "[1]; 50 uM", "result": 78.2, "unit": "%"},
      {"measurement": "Free radical scavenging activity (%)", "setting": "[1]; 100 uM", "result": 78.1, "unit": "%"},
      {"measurement": "Inhibition (%)", "setting": "mushroom tyrosinase", "result": 40, "unit": "%"}
    ]},
    {"compound": "Galloyl-Tripeptide(Glutamyl-Cysteinyl-Glycine) [Example 3]", "values": [
      {"measurement": "Inhibition (%)", "setting": "mushroom tyrosinase", "result": 34, "unit": "%"}
    ]},
    {"compound": "Galloyl-Tripeptide(Tyrosyl-Histidyl-Tyrosine) ({Galloyl′}-Tyr-His-Tyr) [Comparative Example 1, soy bean-derived peptide connected to gallic acid]", "values": [
      {"measurement": "Inhibition (%)", "setting": "mushroom tyrosinase", "result": 15, "unit": "%"}
    ]}
  ]
}
